# Measurements as given in patent publication US20230233569A1 (Revolution Medicines, Inc., priority 2020, published 2023).
# Assays:
# Test in all cases: Ras-Raf disruption / FRET / MOA assay (BRAF RBD)
# Type in all cases: biochemical
# [1] = biological target: KRAS G12D (Homo sapiens, UniProt P01116+P62937, G12D); details: Ras-Raf disruption, with Cyclophilin A; read-out: KRAS G12D FRET data IC50
# How it was run: (§1)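 Compound-induced Ras–Cyclophilin A ternary complex disrupting BRAF RBD binding, read as IC50 from reduced TR-FRET ratio relative to DMSO. Final: Ras-GMPPNP 12.5 nM, BRAF RBD 50 nM, Cyclophilin A 25 μM, top compound 30 μM (3-fold, 10 points); 3 h at 25 °C, then 1.5 h with detection antibodies.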
# [2] = biological target: KRAS G12S (Homo sapiens, UniProt P01116+P62937, G12S); details: Ras-Raf disruption, with Cyclophilin A; read-out: KRAS G12S FRET data IC50
# KRAS G12S, sequence (P01116 1-169 isoform P01116-2 G12S limits assumed): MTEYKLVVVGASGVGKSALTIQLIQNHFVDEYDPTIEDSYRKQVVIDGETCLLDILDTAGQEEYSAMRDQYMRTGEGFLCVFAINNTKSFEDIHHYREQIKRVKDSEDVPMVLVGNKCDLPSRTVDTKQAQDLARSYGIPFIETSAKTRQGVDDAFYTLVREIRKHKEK
# KRAS G12S, sequence (P62937 whole entry): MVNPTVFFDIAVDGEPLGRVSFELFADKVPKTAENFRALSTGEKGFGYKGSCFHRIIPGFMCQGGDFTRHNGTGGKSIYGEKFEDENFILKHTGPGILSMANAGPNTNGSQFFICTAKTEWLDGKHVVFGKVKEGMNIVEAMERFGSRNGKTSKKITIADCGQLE
# How it was run: as §1
# [3] = biological target: KRAS G12V (Homo sapiens, UniProt P01116+P62937, G12V); details: Ras-Raf disruption, with Cyclophilin A; read-out: KRAS G12V FRET data IC50
# KRAS G12V, sequence (P01116 1-169 isoform P01116-2 G12V limits assumed): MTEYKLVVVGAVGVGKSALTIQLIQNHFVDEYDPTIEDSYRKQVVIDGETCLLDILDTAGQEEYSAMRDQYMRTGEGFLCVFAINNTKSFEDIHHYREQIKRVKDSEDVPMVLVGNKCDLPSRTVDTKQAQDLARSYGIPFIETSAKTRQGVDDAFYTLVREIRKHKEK
# KRAS G12V, sequence (P62937 whole entry): as the sequence (P62937 whole entry) above
# How it was run: as §1
# [4] = biological target: KRAS G13C (Homo sapiens, UniProt P01116+P62937, G13C); details: Ras-Raf disruption, with Cyclophilin A; read-out: KRAS G13C FRET data IC50
# KRAS G13C, sequence (P01116 1-169 isoform P01116-2 G13C limits assumed): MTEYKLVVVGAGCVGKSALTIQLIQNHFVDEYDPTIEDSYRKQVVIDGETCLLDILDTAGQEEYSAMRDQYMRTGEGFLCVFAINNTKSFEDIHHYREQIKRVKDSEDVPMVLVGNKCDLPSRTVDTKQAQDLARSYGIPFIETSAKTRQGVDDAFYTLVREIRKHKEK
# KRAS G13C, sequence (P62937 whole entry): as the sequence (P62937 whole entry) above
# How it was run: as §1
# [5] = biological target: KRAS G13D (Homo sapiens, UniProt P01116+P62937, G13D); details: Ras-Raf disruption, with Cyclophilin A; read-out: KRAS G13D FRET data IC50
# KRAS G13D, sequence (P01116 1-169 isoform P01116-2 G13D limits assumed): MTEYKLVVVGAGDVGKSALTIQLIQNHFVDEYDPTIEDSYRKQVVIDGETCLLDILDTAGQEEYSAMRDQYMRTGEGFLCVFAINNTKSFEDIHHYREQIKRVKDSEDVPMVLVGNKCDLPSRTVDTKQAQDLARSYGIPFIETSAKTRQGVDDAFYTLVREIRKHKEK
# KRAS G13D, sequence (P62937 whole entry): as the sequence (P62937 whole entry) above
# How it was run: as §1
# [6] = biological target: KRAS Q61H (Homo sapiens, UniProt P01116+P62937, Q61H); details: KRAS Q61H; read-out: KRAS Q61H FRET data IC50
# KRAS Q61H, sequence (P01116 1-169 isoform P01116-2 Q61H limits assumed): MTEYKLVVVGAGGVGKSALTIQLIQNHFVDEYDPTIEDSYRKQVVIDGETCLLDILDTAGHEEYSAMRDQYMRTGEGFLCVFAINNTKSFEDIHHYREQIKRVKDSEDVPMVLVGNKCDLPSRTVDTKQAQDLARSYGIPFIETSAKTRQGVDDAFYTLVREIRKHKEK
# KRAS Q61H, sequence (P62937 whole entry): as the sequence (P62937 whole entry) above
# How it was run: as §1
# [7] = biological target: KRAS WT (Homo sapiens, UniProt P01116+P62937); details: Ras-Raf disruption, with Cyclophilin A; read-out: KRAS WT FRET data IC50
# KRAS WT, sequence (P01116 1-169 isoform P01116-2 limits assumed): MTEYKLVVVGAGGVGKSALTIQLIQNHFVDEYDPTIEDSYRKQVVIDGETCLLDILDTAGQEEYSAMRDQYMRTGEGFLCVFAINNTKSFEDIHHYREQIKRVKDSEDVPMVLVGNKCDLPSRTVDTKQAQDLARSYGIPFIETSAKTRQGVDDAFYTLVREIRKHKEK
# KRAS WT, sequence (P62937 whole entry): as the sequence (P62937 whole entry) above
# How it was run: as §1
# [8] = biological target: NRAS G12C (Homo sapiens, UniProt P01111+P62937, G12C); details: NRAS G12C; read-out: NRAS G12C FRET data IC50
# NRAS G12C, sequence (P01111 whole entry G12C): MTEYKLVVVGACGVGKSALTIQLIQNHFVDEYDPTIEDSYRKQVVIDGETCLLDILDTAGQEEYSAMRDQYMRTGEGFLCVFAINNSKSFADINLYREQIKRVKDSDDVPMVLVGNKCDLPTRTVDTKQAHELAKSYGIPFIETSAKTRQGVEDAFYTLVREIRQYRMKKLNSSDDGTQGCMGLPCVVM
# NRAS G12C, sequence (P62937 whole entry): as the sequence (P62937 whole entry) above
# How it was run: as §1
# [9] = biological target: NRAS Q61K (Homo sapiens, UniProt P01111+P62937, Q61K); details: NRAS Q61K; read-out: NRAS Q61K FRET data IC50
# NRAS Q61K, sequence (P01111 whole entry Q61K): as the sequence (P01111 whole entry G12C) above, with C12G, Q61K counted along it
# NRAS Q61K, sequence (P62937 whole entry): as the sequence (P62937 whole entry) above
# How it was run: as §1
# [10] = biological target: NRAS Q61R (Homo sapiens, UniProt P01111+P62937, Q61R); details: NRAS Q61R; read-out: NRAS Q61R FRET data IC50
# NRAS Q61R, sequence (P01111 whole entry Q61R): as the sequence (P01111 whole entry G12C) above, with C12G, Q61R counted along it
# NRAS Q61R, sequence (P62937 whole entry): as the sequence (P62937 whole entry) above
# How it was run: as §1
# [11] = biological target: NRAS WT (Homo sapiens, UniProt P01111+P62937); details: NRAS WT; read-out: NRAS WT FRET data IC50
# NRAS WT, sequence (P01111 whole entry): as the sequence (P01111 whole entry G12C) above, with C12G counted along it
# NRAS WT, sequence (P62937 whole entry): as the sequence (P62937 whole entry) above
# How it was run: as §1
# [12] = biological target: KRAS G12C (Homo sapiens, UniProt P01116+P62937, G12C); details: Ras-Raf disruption, with Cyclophilin A; read-out: KRAS G12C FRET data IC50
# KRAS G12C, sequence (P01116 1-169 isoform P01116-2 G12C limits assumed): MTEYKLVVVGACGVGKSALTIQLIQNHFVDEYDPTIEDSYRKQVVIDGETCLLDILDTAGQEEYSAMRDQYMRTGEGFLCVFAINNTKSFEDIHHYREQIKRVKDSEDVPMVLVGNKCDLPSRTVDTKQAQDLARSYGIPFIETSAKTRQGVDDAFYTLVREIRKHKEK
# KRAS G12C, sequence (P62937 whole entry): as the sequence (P62937 whole entry) above
# How it was run: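 TR-FRET read-out after 1.5 h with anti-His Eu-W1024 (10 nM) and anti-GST APC (50 nM), following 3 h at 25 °C of compound (top 30 μM, 3-fold, 10 points) with 25 μM Cyclophilin A, 12.5 nM GMPPNP-loaded K-Ras G12C and 50 nM BRAF RBD; IC50 reported.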
# KRAS G12D, sequence (P01116 1-169 isoform P01116-2 G12D limits assumed): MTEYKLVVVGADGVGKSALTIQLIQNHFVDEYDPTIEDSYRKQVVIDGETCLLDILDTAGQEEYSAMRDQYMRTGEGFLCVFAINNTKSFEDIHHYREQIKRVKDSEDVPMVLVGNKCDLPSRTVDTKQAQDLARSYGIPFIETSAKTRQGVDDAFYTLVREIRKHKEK
# KRAS G12D, sequence (P62937 whole entry): as the sequence (P62937 whole entry) above
Structure (SMILES),IC50 [1] [nM],IC50 [2] [nM],IC50 [3] [nM],IC50 [4] [nM],IC50 [5] [nM],IC50 [6] [nM],IC50 [7] [nM],IC50 [8] [nM],IC50 [9] [nM],IC50 [10] [nM],IC50 [11] [nM],IC50 [12] [nM]
"CCn1c(-c2cccnc2[C@H](C)OC)c2c3cc(ccc31)-c1cc(O)cc(c1)C[C@H](NC(=O)[C@H](C(C)C)N(C)C(=O)[C@@H]1CCN(C(=O)[C@H]3CN3)C1)C(=O)N1CCC[C@H](N1)C(=O)OCC(C)(C)C2 (atropisomer, axis not shown) [Example 186]",10 to 100,10 to 100,10 to 100,10 to 100,10 to 100,10 to 100,10 to 100,< 10,100 to 1000,100 to 1000,10 to 100,< 10
"CCn1c(-c2cccnc2[C@H](C)OC)c2c3cc(ccc31)-c1cc(O)cc(c1)C[C@H](NC(=O)[C@H](C(C)C)N(C)C(=O)N(C)C1CN(C(=O)[C@H]3CN3)C1)C(=O)N1CCC[C@H](N1)C(=O)OCC(C)(C)C2 (atropisomer, axis not shown) [Example 203]",100 to 1000,100 to 1000,100 to 1000,10 to 100,100 to 1000,10 to 100,100 to 1000,< 10,100 to 1000,100 to 1000,100 to 1000,< 10
"CCn1c(-c2cccnc2[C@H](C)OC)c2c3cc(ccc31)-c1cc(O)cc(c1)C[C@H](NC(=O)[C@H](C(C)C)N(C)C(=O)N(C)CCN(C)C(=O)[C@H]1CN1)C(=O)N1CCC[C@H](N1)C(=O)OCC(C)(C)C2 (atropisomer, axis not shown) [Example 204]",100 to 1000,10 to 100,10 to 100,10 to 100,10 to 100,10 to 100,10 to 100,< 10,100 to 1000,100 to 1000,10 to 100,< 10
"CCn1c(-c2cccnc2[C@H](C)OC)c2c3cc(ccc31)-c1cc(O)cc(c1)C[C@H](NC(=O)[C@H](C(C)C)N(C)C(=O)N1CCN(C(=O)[C@@H]3CN3)CC1=O)C(=O)N1CCC[C@H](N1)C(=O)OCC(C)(C)C2 (atropisomer, axis not shown) [Example 205]",1000 to 10000,100 to 1000,100 to 1000,< 10,100 to 1000,10 to 100,10 to 100,10 to 100,100 to 1000,100 to 1000,10 to 100,10 to 100
"CCn1c(-c2cccnc2[C@H](C)OC)c2c3cc(ccc31)-c1cc(O)cc(c1)C[C@H](NC(=O)[C@H](C(C)C)N(C)C(=O)[C@H]1CCN(C(=O)[C@H]3CN3)[C@H]1C)C(=O)N1CCC[C@H](N1)C(=O)OCC(C)(C)C2 (atropisomer, axis not shown) [Example 206]",1000 to 10000,100 to 1000,100 to 1000,100 to 1000,100 to 1000,100 to 1000,100 to 1000,10 to 100,1000 to 10000,1000 to 10000,100 to 1000,10 to 100
"CCn1c(-c2cccnc2[C@H](C)OC)c2c3cc(ccc31)-c1cc(O)cc(c1)C[C@H](NC(=O)[C@H](C(C)C)N(C)C(=O)[C@@H]1CCN(C(=O)[C@H]3CN3)[C@@H]1C)C(=O)N1CCC[C@H](N1)C(=O)OCC(C)(C)C2 (atropisomer, axis not shown) [Example 207]",100 to 1000,10 to 100,10 to 100,10 to 100,100 to 1000,10 to 100,10 to 100,10 to 100,100 to 1000,100 to 1000,10 to 100,10 to 100
"CCn1c(-c2cccnc2[C@H](C)OC)c2c3cc(ccc31)-c1cc(O)cc(c1)C[C@H](NC(=O)[C@H](C(C)C)N(C)C(=O)[C@@H]1CCN(C(=O)[C@@H]3CN3)[C@@H]1C)C(=O)N1CCC[C@H](N1)C(=O)OCC(C)(C)C2 (atropisomer, axis not shown) [Example 208]",100 to 1000,10 to 100,10 to 100,10 to 100,100 to 1000,10 to 100,10 to 100,10 to 100,100 to 1000,100 to 1000,10 to 100,10 to 100
"CCn1c(-c2cccnc2[C@H](C)OC)c2c3cc(ccc31)-c1cc(O)cc(c1)C[C@H](NC(=O)[C@@H](COC1CCN(C(=O)[C@H]3CN3)CC1)C(C)C)C(=O)N1CCC[C@H](N1)C(=O)OCC(C)(C)C2 (atropisomer, axis not shown) [Example 211]",1000 to 10000,1000 to 10000,1000 to 10000,100 to 1000,1000 to 10000,100 to 1000,100 to 1000,10 to 100,1000 to 10000,1000 to 10000,100 to 1000,10 to 100
"CCn1c(-c2cccnc2[C@H](C)OC)c2c3cc(ccc31)-c1cc(O)cc(c1)C[C@H](NC(=O)[C@H](C(C)C)N(C)C(=O)c1nc(NC(=O)[C@H]3CN3)cs1)C(=O)N1CCC[C@H](N1)C(=O)OCC(C)(C)C2 (atropisomer, axis not shown) [Example 212]",1000 to 10000,100 to 1000,100 to 1000,10 to 100,100 to 1000,10 to 100,100 to 1000,100 to 1000,100 to 1000,100 to 1000,100 to 1000,100 to 1000
"CCn1c(-c2cccnc2[C@H](C)OC)c2c3cc(ccc31)-c1csc(n1)C[C@H](NC(=O)[C@H](C(C)C)N(C)C(=O)N(C)CCN(C)C(=O)[C@H]1CN1)C(=O)N1CCC[C@H](N1)C(=O)OCC(C)(C)C2 (atropisomer, axis not shown) [Example 216]",100 to 1000,100 to 1000,100 to 1000,100 to 1000,100 to 1000,10 to 100,100 to 1000,10 to 100,10 to 100,100 to 1000,100 to 1000,10 to 100
"CCn1c(-c2cccnc2[C@H](C)OC)c2c3cc(ccc31)-c1csc(n1)C[C@H](NC(=O)[C@H](C(C)C)N(C)C(=O)N(C)CCN(C)C(=O)[C@@H]1CN1)C(=O)N1CCC[C@H](N1)C(=O)OCC(C)(C)C2 (atropisomer, axis not shown) [Example 217]",100 to 1000,100 to 1000,100 to 1000,100 to 1000,100 to 1000,10 to 100,100 to 1000,10 to 100,10 to 100,100 to 1000,10 to 100,10 to 100
CCn1c(-c2cccnc2[C@H](C)OC)c2c3cc(ccc31)-c1csc(n1)C[C@H](NC(=O)[C@H](C(C)C)N(C)C(=O)N1CC(N(C)C(=O)[C@H]3CN3)C1)C(=O)N1CCC[C@H](N1)C(=O)OCC(C)(C)C2 [Example 218],1000 to 10000,100 to 1000,100 to 1000,100 to 1000,100 to 1000,10 to 100,100 to 1000,10 to 100,10 to 100,100 to 1000,100 to 1000,–
CCn1c(-c2cccnc2[C@H](C)OC)c2c3cc(ccc31)-c1cccc(c1)C[C@H](NC(=O)[C@H](C1CCCC1)N1CC[C@]3(CCN(C(=O)[C@@H]4N[C@@H]4C4CC4)C3)C1=O)C(=O)N1CCC[C@H](N1)C(=O)OCC(C)(C)C2 [Example 313],100 to 1000,1000 to 10000,1000 to 10000,100 to 1000,1000 to 10000,–,1000 to 10000,100 to 1000,1000 to 10000,1000 to 10000,1000 to 10000,100 to 1000
